Experimental data reported in US10709723B2, “Pharmaceutical anti-infective composition for inhalation” (GALEPHAR PHARMACEUTICAL RESEARCH, INC., priority 2006, dated 2020).
Converted amounts (≈) assume the structure as drawn. Read-outs that look alike come from different tables or passages of the source.

Experiments:
[1] = tested on: 12 day biofilm of Pseudomonas aeruginosa; assay: Bacterial count (CFU/ml) of 12-day biofilm after 24 hours with the products; assay type: cell-based; details: tobramycin 4 μg/ml alone; clarithromycin 100, 200 and 500 μg/ml alone; all combinations
From the text: Biofilms of Pseudomonas aeruginosa—strain PY O1 were formed according to the methods described by Ceri et al, the calgary biofilm device: new technology for rapid determination of antibiotic susceptibilities of bacterial biofilms, Journal of clinical microbiology, pp. 1771-1776, 1999 and Abdi-Ali et al, bactericidal activity of various antibiotics against biofilm-producing Pseudomonas aeruginosa, International Journal of Antimicrobial Agents 27, 196-200, 2006.
PY O1: is a cystic Fibrosis clinical mucoid strain of Pseudomonas aeruginosa received from the Erasme Hospital, Brussels.
After having shown that the number of Pseudomonas aeruginosa within the biofilms was stable after 12 days, the products listed in Table 1 were added to the media for the duration of 24 hours. Thereafter the biofilm was rinsed three times with a 0.01M phosphate buffer adjusted at pH 7.5 in order to remove all cells not bound to the biofilm. The microplate was then placed on ultrasonic bath at 35° C. for 5 minutes to allow the bacteria present in the biofilm to separate from such biofilm. A bacterial count was then performed (number of coloning forming unit CFU/ml). Each experience was done twice and the CFU counting was also repeated twice/experience.

[2] = tested on: planktonic Pseudomonas aeruginosa; assay: MIC on planktonic bacteria (NCCLS dilution standard); assay type: cell-based
Procedure: The determination of the minimal inhibitory concentration (MIC) is performed according to the standard of NCCLS (NCCLS, Methods for dilution Antimicrobial Susceptibility Tests for bacteria that grow aerobically; approved standards, sixth edition, M7-A6, vol. 23 no. 2, January 2003.

[3] = In vitro lung deposition, Multistage Liquid Impinger (MLI); assay type: physicochemical; details: for lung concentration obtained per capsule: composition of example 6, epithelial liquid in the lung estimated at about 100 ml
From the text: The amount of macrolide agent inhaled shall be high enough to affect, in some way, the biofilm. It has to be noted that as the effect of macrolide derivatives on the biofilm is mediated through a non-antibacterial mechanism. […] Nevertheless, it is a another object of the present invention to provide a composition containing high concentrations (or amounts) of each of the aminoglycoside derivative and of the macrolide derivative i.e. at least more than 10%, preferably more than 15%, and more preferably more than 20% of the dry powder composition. It is indeed particularly interesting to achieve high lung doses of those therapeutic agents with the minimum amounts of inhalations because it makes the administration easier and more importantly increase the patient's compliance. It also decreases the nominal dose of each active ingredient and thus the adverse effects linked to these actives. In the present invention, the dry powder inhaler also provides a high Fine Particle Dose (FPD) and Fine Particle […] (FPF) when tested in vitro on a Multistage Liquid Impinger (MLI, Eur. Pharm, 5th Edition, chapter 2.9.18). The FPD and FPF are the parameters that predict in vivo lung deposition.
The in vitro lung deposition test was performed using equipment and conditions as described in the European Pharmacopoeia (5th edition, chapter 2.9.18—apparatus C). This equipment consists of a Multistage Liquid Impinger (MLI) and was operated with an air flow of 100 L/min during a period of time of 2.4 seconds to simulate inhalation capabilities of patients. The quantification of the deposition of each drug on each stage of the MLI was performed by HPLC equipped with a a Corona detector.

[4] = composition of example 6, 10 mg/capsule, MLI 100 L/min, Mean (n = 3)
[5] = composition of example 6, 10 mg/capsule, MLI 100 L/min, run MLI1
[6] = composition of example 6, 10 mg/capsule, MLI 100 L/min, run MLI2
[7] = composition of example 6, 10 mg/capsule, MLI 100 L/min, run MLI3

Row | MIC [2] | FPD [3, 4] | Filter deposition [3, 4] | FPD [3, 5] | FPD [3, 6] | FPD [3, 7] | Stage 2 deposition [3, 7] | lung concentration obtained per capsule [3] | MIC ([2]; read-out: MIC) | Structure (SMILES) | Decrease of the number of CFU/ml of the 12-day biofilm versus the positive control [1]
1 | not sensitive | 3.63 mg | 0.550 mg | 3.14 mg | 3.76 mg | 3.98 mg | 0.680 mg | 36.3 µg/mL | – | CC[C@H]1OC(=O)[C@H](C)[C@@H](O[C@H]2C[C@@](C)(OC)[C@@H](O)[C@H](C)O2)[C@H](C)[C@@H](O[C@@H]2O[C@H](C)C[C@H](N(C)C)[C@H]2O)[C@](C)(OC)C[C@@H](C)C(=O)[C@H](C)[C@@H](O)[C@]1(C)O [Clarithromycin] | neither tobramycin 4 μg/ml nor clarithromycin at 100, 200 and 500 μg/ml alone are able to decrease the number of CFU/ml
2 | – | 4.26 mg | 0.760 mg | 3.60 mg | 4.45 mg | 4.72 mg | – | 42.6 µg/mL | 3.9 µg/mL (≈ 8.34 µM) | NC[C@H]1O[C@H](O[C@H]2[C@H](O)[C@@H](O[C@H]3O[C@H](CO)[C@@H](O)[C@H](N)[C@H]3O)[C@H](N)C[C@@H]2N)[C@H](N)C[C@@H]1O [Tobramycin] | neither tobramycin 4 μg/ml nor clarithromycin at 100, 200 and 500 μg/ml alone are able to decrease the number of CFU/ml
